Reference: patent US20250171430A1, “PYRAZOLYL COMPOUNDS AS KV7 CHANNEL ACTIVATORS” (Biohaven Therapeutics Ltd., priority 2022, published 2025)

Target: T1, Kv7.2/7.3 (Homo sapiens, UniProt O43525+O43526)
T1 construct: Kv7.2 tetracycline-induced, Kv7.3 constitutive
Assay: Kv7.2/7.3 Activation Assay (Thallium Flux Assay)
Type: cell-based
Details: hKV7.2/7.3 cell line; test compound at single concentration of 10 μM; fluorescence at 90 sec normalized to positive control (retigabine, 30 μM)
In short: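 Single-point activity at 10 μM (0.1% DMSO, HEPES-buffered saline, pH 7.4) was scored from fluorescence at 90 s relative to 30 μM retigabine. Categories were none <0.15, moderate 0.15-0.7 and high >0.7. Thallium influx after stimulus addition was followed with FluxOR II Green dye in hKv7.2/7.3 cells, Kv7.2 expressed under overnight tetracycline (10 ng/mL) induction.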

| Kv7.2/7.3 Activity | SMILES |
| --- | --- |
| ++ (“++” High Activity ≥ 0.7) | Cn1nc(NC(=O)C2(C)CC(F)(F)C2)c(C2CCC2)c1-c1ccc(F)c(F)c1 [Compound 201, N-(4-cyclobutyl-5-(3,4-difluorophenyl)-1-methyl-1H-pyrazol-3-yl)-3,3-difluoro-1-methylcyclobutane-1-carboxamide] |
| ++ (“++” High Activity ≥ 0.7) | Cn1nc(NC(=O)[C@H]2C[C@](C)(F)C2)c(C2CCC2)c1-c1ccc(F)cc1 [Compound 202, (1r,3r)-N-(4-cyclobutyl-5-(4-fluorophenyl)-1-methyl-1H-pyrazol-3-yl)-3-fluoro-3-methylcyclobutane-1-carboxamide] |
| + (“+” Moderate Activity 0.15-0.7) | Cn1nc(NC(=O)[C@H]2C[C@](C)(F)C2)c(C2CCC2)c1-c1cnc(C(F)(F)F)s1 [Compound 203, (1r,3r)-N-(4-cyclobutyl-1-methyl-5-(2-(trifluoromethyl)thiazol-5-yl)-1H-pyrazol-3-yl)-3-fluoro-3-methylcyclobutane-1-carboxamide] |
| ++ (“++” High Activity ≥ 0.7) | Cn1nc(NC(=O)C2CC3(C2)CC(F)(F)C3)c(C2CCC2)c1-c1ccc(F)cc1 [Compound 204, N-(4-cyclobutyl-5-(4-fluorophenyl)-1-methyl-1H-pyrazol-3-yl)-6,6-difluorospiro[3.3]heptane-2-carboxamide] |
| ++ (“++” High Activity ≥ 0.7) | Cn1nc(NC(=O)C2CSC2)c(C2CCC2)c1-c1ccc(F)cc1 [Compound 205, N-(4-cyclobutyl-5-(4-fluorophenyl)-1-methyl-1H-pyrazol-3-yl)thietane-3-carboxamide] |
| + (“+” Moderate Activity 0.15-0.7) | Cn1nc(NC(=O)[C@H]2C[C@H]2F)c(C2CCC2)c1-c1ccc(F)cc1 [Compound 206, (1R,2R)-N-(4-cyclobutyl-5-(4-fluorophenyl)-1-methyl-1H-pyrazol-3-yl)-2-fluorocyclopropane-1-carboxamide] |
| ++ (“++” High Activity ≥ 0.7) | Cn1nc(NC(=O)[C@H]2CC2(C)C)c(-c2ccc(F)cc2)c1C1CC(F)(F)C1 [Compound 207, (S)-N-(5-(3,3-difluorocyclobutyl)-4-(4-fluorophenyl)-1-methyl-1H-pyrazol-3-yl)-2,2-dimethylcyclopropane-1-carboxamide] |
| − (“−” No Activity < 0.15) | Cn1nc(NC(=O)C2(C)CC(F)(F)C2)c(C2CCC2)c1-c1ccc(C(F)(F)F)cc1 [Compound 208, N-(4-cyclobutyl-1-methyl-5-(4-(trifluoromethyl)phenyl)-1H-pyrazol-3-yl)-3,3-difluoro-1-methylcyclobutane-1-carboxamide] |
| + (“+” Moderate Activity 0.15-0.7) | Cn1nc(NC(=O)C2CC(F)(F)C2)c(C2CCC2)c1-c1ccc(C(F)(F)F)cc1 [Compound 209, N-(4-cyclobutyl-1-methyl-5-(4-(trifluoromethyl)phenyl)-1H-pyrazol-3-yl)-3,3-difluorocyclobutane-1-carboxamide] |
| ++ (“++” High Activity ≥ 0.7) | Cn1nc(NC(=O)C2(C)CC(F)(F)C2)c(C2CCC2)c1-c1ccc(Cl)s1 [Compound 210, N-(5-(5-chlorothiophen-2-yl)-4-cyclobutyl-1-methyl-1H-pyrazol-3-yl)-3,3-difluoro-1-methylcyclobutane-1-carboxamide] |
| ++ (“++” High Activity ≥ 0.7) | Cn1nc(NC(=O)NC2CC(F)(F)C2)c(C2CCC2)c1-c1ccc(Cl)s1 [Compound 211, 1-(5-(5-chlorothiophen-2-yl)-4-cyclobutyl-1-methyl-1H-pyrazol-3-yl)-3-(3,3-difluorocyclobutyl)urea] |
| + (“+” Moderate Activity 0.15-0.7) | Cn1nc(NC(=O)NC2CC(F)(F)C2)c(C2CCC2)c1-c1ccc(F)cc1 [Compound 212, 1-(4-cyclobutyl-5-(4-fluorophenyl)-1-methyl-1H-pyrazol-3-yl)-3-(3,3-difluorocyclobutyl)urea] |
| ++ (“++” High Activity ≥ 0.7) | Cn1nc(NC(=O)NC2CC(F)(F)C2)c(C2CCC2)c1-c1ccc(F)c(F)c1 [Compound 213, 1-(4-cyclobutyl-5-(3,4-difluorophenyl)-1-methyl-1H-pyrazol-3-yl)-3-(3,3-difluorocyclobutyl)urea] |
| ++ (“++” High Activity ≥ 0.7) | CCO[C@@H](CC(=O)Nc1nn(C)c(-c2ccc(F)c(F)c2)c1C1CCC1)C(F)(F)F [Compound 214, (S)-N-(4-cyclobutyl-5-(3,4-difluorophenyl)-1-methyl-1H-pyrazol-3-yl)-3-ethoxy-4,4,4-trifluorobutanamide] |
| ++ (“++” High Activity ≥ 0.7) | CO[C@@H](CC(=O)Nc1nn(C)c(-c2ccc(F)c(F)c2)c1C1CCC1)C(F)(F)F [Compound 215, (S)-N-(4-cyclobutyl-5-(3,4-difluorophenyl)-1-methyl-1H-pyrazol-3-yl)-4,4,4-trifluoro-3-methoxybutanamide] |
| ++ (“++” High Activity ≥ 0.7) | COC1(CC(=O)Nc2nn(C)c(-c3ccc(F)c(F)c3)c2C2CCC2)CCC1 [Compound 216, N-(4-cyclobutyl-5-(3,4-difluorophenyl)-1-methyl-1H-pyrazol-3-yl)-2-(1-methoxycyclobutyl)acetamide] |

| Kv7.2/7.3 Activity | SMILES |
| --- | --- |
| ++ (“++” High Activity ≥ 0.7) | Cn1nc(NC(=O)CC2CC(F)(F)C2)c(C2CCC2)c1-c1ccc(F)c(F)c1 [Compound 217, N-(4-cyclobutyl-5-(3,4-difluorophenyl)-1-methyl-1H-pyrazol-3-yl)-2-(3,3-difluorocyclobutyl)acetamide] |
| ++ (“++” High Activity ≥ 0.7) | Cn1nc(NC(=O)CC2CC(F)(F)C2)c(C2CCC2)c1-c1ccc(Cl)s1 [Compound 218, N-(5-(5-chlorothiophen-2-yl)-4-cyclobutyl-1-methyl-1H-pyrazol-3-yl)-2-(3,3-difluorocyclobutyl)acetamide] |
| − (“−” No Activity < 0.15) | Cn1nc(NC(=O)[C@@H]2C[C@H]2F)c(C2CCC2)c1-c1ccc(F)cc1 [Compound 219, (1S,2R)-N-(4-cyclobutyl-5-(4-fluorophenyl)-1-methyl-1H-pyrazol-3-yl)-2-fluorocyclopropane-1-carboxamide] |
| ++ (“++” High Activity ≥ 0.7) | Cn1nc(NC(=O)C2CC(F)(F)C2)c(C2CCC2)c1-c1ccc(Cl)cc1 [Compound 220, N-(5-(4-chlorophenyl)-4-cyclobutyl-1-methyl-1H-pyrazol-3-yl)-3,3-difluorocyclobutane-1-carboxamide] |
| + (“+” Moderate Activity 0.15-0.7) | Cn1nc(NC(=O)C2(C)CC(F)(F)C2)c(C2CCC2)c1-c1ccc(Cl)cc1 [Compound 221, N-(5-(4-chlorophenyl)-4-cyclobutyl-1-methyl-1H-pyrazol-3-yl)-3,3-difluoro-1-methylcyclobutane-1-carboxamide] |
| ++ (“++” High Activity ≥ 0.7) | Cn1nc(NC(=O)CC2CC(F)(F)C2)c(C2CCC2)c1-c1ccc(Cl)cc1 [Compound 222, N-(5-(4-chlorophenyl)-4-cyclobutyl-1-methyl-1H-pyrazol-3-yl)-2-(3,3-difluorocyclobutyl)acetamide] |
| + (“+” Moderate Activity 0.15-0.7) | Cn1nc(NC(=O)[C@@H]2CC2(F)F)c(C2CCC2)c1-c1ccc(Cl)cc1 [Compound 223, (S)-N-(5-(4-chlorophenyl)-4-cyclobutyl-1-methyl-1H-pyrazol-3-yl)-2,2-difluorocyclopropane-1-carboxamide] |
| − (“−” No Activity < 0.15) | Cn1nc(NC(=O)[C@H]2CC2(F)F)c(C2CCC2)c1-c1ccc(Cl)cc1 [Compound 224, (R)-N-(5-(4-chlorophenyl)-4-cyclobutyl-1-methyl-1H-pyrazol-3-yl)-2,2-difluorocyclopropane-1-carboxamide] |
| + (“+” Moderate Activity 0.15-0.7) | Cc1nnsc1-c1c(C2CCC2)c(NC(=O)C2CC(F)(F)C2)nn1C [Compound 225, N-(4-cyclobutyl-1-methyl-5-(4-methyl-1,2,3-thiadiazol-5-yl)-1H-pyrazol-3-yl)-3,3-difluorocyclobutane-1-carboxamide] |
| ++ (“++” High Activity ≥ 0.7) | Cn1nc(NC(=O)OC2CC(F)(F)C2)c(C2CCC2)c1-c1ccc(Cl)s1 [Compound 226, 3,3-difluorocyclobutyl (5-(5-chlorothiophen-2-yl)-4-cyclobutyl-1-methyl-1H-pyrazol-3-yl)carbamate] |
| − (“−” No Activity < 0.15) | Cn1nc(NC(=O)C2COC2)c(C2CCC2)c1-c1ccc(F)cc1 [Compound 227, N-(4-cyclobutyl-5-(4-fluorophenyl)-1-methyl-1H-pyrazol-3-yl)oxetane-3-carboxamide] |
| − (“−” No Activity < 0.15) | Cn1nc(NC(=O)C2CS(=O)(=O)C2)c(C2CCC2)c1-c1ccc(F)cc1 [Compound 228, N-(4-cyclobutyl-5-(4-fluorophenyl)-1-methyl-1H-pyrazol-3-yl)thietane-3-carboxamide 1,1-dioxide] |
| ++ (“++” High Activity ≥ 0.7) | O=C(Nc1nn(CCO)c(-c2ccc(Cl)s2)c1C1CCC1)C1CC(F)(F)C1 [Compound 229, N-(5-(5-chlorothiophen-2-yl)-4-cyclobutyl-1-(2-hydroxyethyl)-1H-pyrazol-3-yl)-3,3-difluorocyclobutane-1-carboxamide] |
| ++ (“++” High Activity ≥ 0.7) | Cn1nc(NC(=O)C[C@@H]2CC(F)(F)C2(F)F)c(C2CCC2)c1-c1ccc(Cl)s1 [Compound 230, (R)-N-(5-(5-chlorothiophen-2-yl)-4-cyclobutyl-1-methyl-1H-pyrazol-3-yl)-2-(2,2,3,3-tetrafluorocyclobutyl)acetamide] |
| ++ (“++” High Activity ≥ 0.7) | Cn1nc(NC(=O)C[C@H]2CC(F)(F)C2(F)F)c(C2CCC2)c1-c1ccc(Cl)s1 [Compound 231, (S)-N-(5-(5-chlorothiophen-2-yl)-4-cyclobutyl-1-methyl-1H-pyrazol-3-yl)-2-(2,2,3,3-tetrafluorocyclobutyl)acetamide] |
